Measurements from US11192863B2, “Antiviral compounds and methods” (Biotron Limited, priority 2003, dated 2021).
Counter-ions that a name gives are not always drawn. Like-named read-outs stand apart in the source and are kept apart here.

Tests used:
human coronavirus OC43 = assay: microbe, parasite or virus in culture; assay type: cell-based; conditions: Betacoronavirus 1, OC43, MRC5, 120 h, MRC-5 cells, 5 days post infection
SARS-CoV E protein = SARS-CoV E protein (Severe acute respiratory syndrome coronavirus, UniProt P59637); assay type: cell-based
229E-CoV E-protein = 229E-CoV E-protein (Human coronavirus 229E, UniProt P19741); assay: Bacterial bio-assay for 229E-CoV E-protein; conditions: halo of growth score; E. coli expressing E protein at 37° C.
Vpu protein = Vpu protein (Human immunodeficiency virus type 1 group M subtype B, UniProt P05919); conditions: for Vpu Inhibition (score/# of times tested): halo of growth score between zero and six, XL1-blue E. coli with pPL-Vpu, no adenine, 37° C.
MHV (strain MHV-A59) = conditions: L929 cells
HIV = assay type: cell-based; conditions: for At least 1x log reduction seen in p24 assay?: Table 19b, yes/no
bovine coronavirus (BCV) = assay: BCV plaque assay in MDBK cells; assay type: cell-based; conditions: Betacoronavirus 1; BCV plaques in MDBK cells
Dengue 1 strain Hawaii = assay: Dengue cytoproliferation assay in LLC-MK2 cells (Alamar Blue); assay type: cell-based, Dengue virus; conditions: 7 days
[1] = biological target: SARS E protein ion channel (Severe acute respiratory syndrome coronavirus, UniProt P59637); assay type: biochemical, SARS-CoV
[2] = Table 19a, rank among 12 compounds, 1 = highest score

Compound | inhibition at 2.5 µM (human coronavirus OC43) [%] | SARS E protein Inhibition (score/# of times tested) (SARS-CoV E protein) | 229E E protein Inhibition (score) (229E-CoV E-protein) | Vpu Inhibition (score/# of times tested) (Vpu protein) | Percent reduction in Plaque number/# experiments (MHV (strain MHV-A59); 1 uM) | Percent reduction in Plaque number/# experiments (MHV (strain MHV-A59); 10 uM) | Percent reduction in Plaque number/# experiments (MHV (strain MHV-A59); 20 uM) | further results
N=C(N)NC(=O)/C=C/c1c(Cl)cccc1Cl [2,6-dichlorocinnamoylguanidine] | 27 | 2.25/1 score | 1.0 | 2.88/2 score | 40/1% | 70/1% | 91/1% | –
COc1ccc(Br)cc1/C=C/C(=O)NC(=N)N [5-bromo-2-methoxycinnamoylguanidine] | 24 | – | 3.6 | 1.9/2 score | 66/1% | 100/1% | – | –
N=C(N)NC(=O)/C=C/c1cccc(OC(F)(F)F)c1 [3-(trifluoromethoxy)cinnamoylguanidine] | 4 | 2.71/1 score | 4.1 | 2.44/2 score | 41/2% | 90/3% | 100/1% | –
CC(C)c1ccc(/C=C/C(=O)NC(=N)N)cc1 [4-isopropylcinnamoylguanidine] | 68 | 3.16/2 score | 4.9 | 1.4/2 score | 41/3% | 93/3% | 95/3% | –
NC(N)=NC(=O)/C=C/c1ccc(Cl)cc1 [(4-Chlorocinnamoyl)guanidine] | 36 | 1.94/2 score | 1.4 | 2.7/5 score | 43/3% | 88/2% | 97/2% | –
N=C(N)NC(=O)/C=C/c1cccc(C(F)(F)F)c1 [3-(trifluoromethyl)cinnamoylguanidine] | 84 | 2.67/1 score | 2.3 | 3.7/2 score | 40/1% | 83/1% | 98/1% | Percent of Positive Control (HIV; Drug Conc. 0.625 μM): 38%; Percent of Positive Control (HIV; Drug Conc. 1.25 μM): 27%; Percent of Positive Control (HIV; Drug Conc. 2.5 μM): 25%; Percent of Positive Control (HIV; Drug Conc. 5 μM): 8%; Percent of Positive Control (HIV; Drug Conc. 10 μM): 11%; At least 1x log reduction seen in p24 assay? (HIV): yes; EC50 (bovine coronavirus (BCV)): 3 µM; Bacterial assay rank order (Vpu protein; [2]): 2; Bacterial assay rank order (Vpu protein; Table 19b): 2; Vpu Bacterial score (Vpu protein; Table 19b): 3.7
NC(N)=NC(=O)/C=C/C=C/c1ccccc1 [(5-Phenyl-penta-2,4-dienoyl)guanidine] | 9 | 0.44/2 score | 1.8 | 2.56/2 score | 17/1% | 24/1% | 27/1% | At least 1x log reduction seen in p24 assay? (HIV): no; EC50 (bovine coronavirus (BCV)): 95 µM; Bacterial assay rank order (Vpu protein; [2]): 8; Bacterial assay rank order (Vpu protein; Table 19b): 8; Vpu Bacterial score (Vpu protein; Table 19b): 2.6
N=C(N)NC(=O)/C=C/c1ccccc1Cl [(2-Chlorocinnamoyl)guanidine] | 96 | 3.1/3 score | 0.1 | 4.0/4 score | 53/3% | 88/3% | 95/2% | Antiviral Percent of Negative Control (Dengue 1 strain Hawaii; Drug Conc. 0.625 μM): 64.3%; Antiviral Percent of Negative Control (Dengue 1 strain Hawaii; Drug Conc. 1.25 μM): 52.5%; Antiviral Percent of Negative Control (Dengue 1 strain Hawaii; Drug Conc. 2.5 μM): 22.7%; Antiviral Percent of Negative Control (Dengue 1 strain Hawaii; Drug Conc. 5 μM): 7.7%; Antiviral Percent of Negative Control (Dengue 1 strain Hawaii; Drug Conc. 10 μM): 8.4%
N=C(N)NC(=O)/C=C/c1ccc(Cl)c(Cl)c1 [3,4-dichlorocinnamoylguanidine] | 90 | 4.15/2 score | 4.4 | 2.9/3 score | 50/2% | 96/1% | 91/2% | –
N=C(N)NC(=O)c1ccc(-c2ccccc2)cc1 [4-phenylbenzoylguanidine] | – | 0.63/2 score | 2.3 | 2.75/5 score | 5/1% | 24/1% | 32/1% | Percent of Positive Control (HIV; Drug Conc. 0.625 μM): 10%; Percent of Positive Control (HIV; Drug Conc. 1.25 μM): 216%; Percent of Positive Control (HIV; Drug Conc. 2.5 μM): 9%; Percent of Positive Control (HIV; Drug Conc. 5 μM): 4%; Percent of Positive Control (HIV; Drug Conc. 10 μM): 26%; At least 1x log reduction seen in p24 assay? (HIV): no; EC50 (bovine coronavirus (BCV)): 190 µM; Bacterial assay rank order (Vpu protein; [2]): 7; Bacterial assay rank order (Vpu protein; Table 19b): 7; Vpu Bacterial score (Vpu protein; Table 19b): 2.8
NC(N)=NC(=O)/C=C/c1ccc(Br)cc1 [(4-Bromocinnamoyl)guanidine] | 29 | 1.69/2 score | 2.0 | 2.5/4 score | 52/3% | 98/3% | – | Toxic (noted in place of plaque reduction) (MHV (strain MHV-A59); 20 uM): Toxic/2
O=C(CCc1ccccc1)NC(=Nc1ccccc1)NC(=O)CCc1ccccc1 [N,N′-bis(3phenylpropanoyl)-N″-phenylguanidine] | – | 1.33/3 score | 0.1 | 2.25/3 score | 1/3% | 40/4% | 67/3% | % Reduction of average current by 100 μM [1]: 88 ± 6%
N/C(=N\C(=O)c1nc(Cl)c(N)nc1N)NCc1ccc(Cl)cc1Cl [2′4 DichloroBenzamil HCl] | – | 3.00/2 score | – | 1.7/2 score | 0/3% | 0/3% | 12/2% | % Reduction of average current by 100 μM [1]: 78 ± 0%
N=C(N)NC(=O)/C=C/c1ccccc1Br [(2-Bromocinnamoyl)guanidine] | – | 2.47/3 score | 0.9 | 3.7/2 score | 52/3% | 89/3% | 91/2% | % Reduction of average current by 100 μM [1]: 88 ± 6%
